Blank lines part the entries; values can stand above or below the molecule they belong to.
Assays:
[1] = biological target: T1, HS α4β2 (α4(2)β2(3)) nAChR (Homo sapiens, UniProt P17787+P43681); test: Bath application of test compound: inhibition of ACh-evoked peak currents in Xenopus oocytes; format: cell-based
T1 construct: expressed in transfected cells; host or cells: Xenopus laevis oocytes injected with cRNA
Description: (§1) We have extended this approach to defined receptor subtypes expressed in Xenopus oocytes. Experiments were conducted on cells expressing HS α4β2 (α4(2)β2(3)), LS α4β2 (α4(3)β2(2)), or α7 nAChR.
(§2) cDNA: Human nAChR receptor clones and concatamers were obtained from Dr. Jon Lindstrom (University of Pennsylvania, Philadelphia Pa.). The human RIC-3 clone, obtained from Dr. Millet Treinin (Hebrew University, Jerusalem Israel), was co-injected with α7 to improve the levels and speed of receptor expression.
(§3) Oocyte preparation: Oocytes were surgically removed from mature Xenopus laevis frogs and injected with 50 nl (5-20 ng) of appropriate nAChR subunit cRNAs as described previously (Horenstein et al., 2008).
(§4) Experiments were conducted using OpusXpress 6000A (Molecular Devices, Union City Calif.) and analyzed as described previously (Papke and Papke, 2002; Horenstein et al., 2008; Papke and Stokes, 2010).
(§5) Initial experiments were run for 50 minutes after the introduction of the experimental compounds into the bath.

[2] = biological target: T2, LS α4β2 (α4(3)β2(2)) nAChR (Homo sapiens, UniProt P17787+P43681); test: as above; format: cell-based
T2 construct: expressed in transfected cells; host or cells: Xenopus laevis oocytes injected with cRNA
Description: as §1, §2, §3, §4, §5

α7 nAChR [3] = biological target: T3, α7 nAChR (Homo sapiens, UniProt P36544); test: Bath application of test compound: modulation of ACh-evoked net charge responses in Xenopus oocytes; format: cell-based
T3 construct: expressed in transfected cells; host or cells: Xenopus laevis oocytes injected with cRNA
Description: as §1, §2, §3, §4, §5

α7 nAChR [4] = biological target: T3, α7 nAChR; test: Acute co-application of ACh and S 24795, model fit of net charge responses in oocytes; format: cell-based
Description: FIG. 2.1 illustrates a model applied to the activation of nAChR by simultaneous co-applications of the full agonist “a” and a partial agonist “p”. […] The IMax of the full agonist is assigned a value of 1. The first and second terms of the equation represent the activation produced by the full agonist and partial agonists, respectively, scaled by their potencies and weighted by receptor availability. The third term allows noncompetitive effects of the partial agonist. If such noncompetitive activity is inhibitory, then ni is assigned a negative value.
Acute responses to agonist/partial agonist applications were fit with a general non-linear regression model, implemented as an option in a Windows data analyses and graphical presentation program (CAS Data Forge). The terms na, np, ni, Rmaxp, Inmaxp, EC50a, EC50p, and IC50p were given starting estimates based on the data obtained with the drugs applied separately. Tolerance factor (typically 1×10^−5) range limits for each parameter were specified. […] A predicted matrix was then calculated for each cell of the matrix, based on the a and p concentrations, the set of parameters listed above, and the governing equation. The residuals across all cells were calculated, and an iterative process was utilized to revise the parameters to minimize the residuals and allow the estimates to be revised accordingly. When the difference of estimates for any given parameter for consecutive iterations fell below the tolerance factor, that parameter was fixed at the last estimate. When all parameters were fixed or no convergent solution was found, the process stopped, and the set of parameters representing the best fit along with the resulting matrix was provided.
The Imax for the full agonist was constrained to 1 while the Imax for the partial agonist was a free parameter <1.0.
Curve fit values for the drugs when applied alone were used as seeds for the competitive interactions.

α4(2)β2(2)α5 nAChR = biological target: T4, α4(2)β2(2)α5 nAChR (Homo sapiens, UniProt P17787+P30532+P43681); test: Bath application of test compound: inhibition of ACh-evoked responses in Xenopus oocytes; format: cell-based
T4 construct: expressed in transfected cells; host or cells: Xenopus laevis oocytes injected with cRNA
Description: as §2, §3, §4, §5
(§6) Recently, attention has been drawn to α5 as a member of a gene cluster associated with high risk for cancer and heavy smoking (Saccone et al., 2007). In the periphery, α5 is most likely expressed in association with the other members of its gene cluster, α3 and β4.

α4β2α5 nAChR [5] = biological target: T5, α4β2α5 nAChR (Homo sapiens, UniProt P17787+P30532+P43681); test: Agonist activation of α4β2α5 receptors in oocytes; format: cell-based
T5 construct: expressed in transfected cells; host or cells: Xenopus laevis oocytes injected with cRNA
Description: as §6

α4(2)β2(3) nAChR = biological target: T6, α4(2)β2(3) nAChR (Homo sapiens, UniProt P17787+P43681); test: Bupropion co-applied with ACh: inhibition of ACh-evoked responses, oocytes; format: cell-based; details: co-applied with 10 μM ACh
T6 construct: expressed in transfected cells; host or cells: Xenopus laevis oocytes injected with cRNA
Description: as §5

α4(3)β2(2) nAChR = biological target: T7, α4(3)β2(2) nAChR (Homo sapiens, UniProt P17787+P43681); test: as above; format: cell-based; details: co-applied with 30 μM ACh
T7 construct: expressed in transfected cells; host or cells: Xenopus laevis oocytes injected with cRNA
Description: as §5

α7 nAChR [6] = biological target: T3, α7 nAChR; test: as above; format: cell-based
Description: as §5

α4β2α5 nAChR [7] = biological target: T5, α4β2α5 nAChR; test: as above; format: cell-based; details: co-applied with 3 μM ACh
[8] = test system: α4(3)β2(2), α4(2)β2(3), α4(2)β2(2)α5 and α7 nAChR; test: Test of bupropion for receptor activation, oocytes; format: cell-based, human; details: 300 nM to 300 μM
[9] = noncompetitive inhibition factor

T3 sequence (P36544 23-502): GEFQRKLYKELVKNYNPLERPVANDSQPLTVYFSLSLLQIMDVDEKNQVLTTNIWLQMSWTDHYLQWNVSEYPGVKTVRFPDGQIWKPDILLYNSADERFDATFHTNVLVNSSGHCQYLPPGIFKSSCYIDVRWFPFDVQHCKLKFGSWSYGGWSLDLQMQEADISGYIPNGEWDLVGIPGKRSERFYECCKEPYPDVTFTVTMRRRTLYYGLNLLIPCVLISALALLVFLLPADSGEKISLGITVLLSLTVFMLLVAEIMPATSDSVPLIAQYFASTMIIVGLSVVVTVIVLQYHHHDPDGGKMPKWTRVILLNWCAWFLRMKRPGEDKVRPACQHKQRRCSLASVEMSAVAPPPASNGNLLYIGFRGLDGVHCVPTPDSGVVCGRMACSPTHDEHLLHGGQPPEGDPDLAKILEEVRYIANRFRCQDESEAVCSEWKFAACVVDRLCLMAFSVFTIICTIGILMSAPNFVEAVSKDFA
T5 sequence (P17787 26-502): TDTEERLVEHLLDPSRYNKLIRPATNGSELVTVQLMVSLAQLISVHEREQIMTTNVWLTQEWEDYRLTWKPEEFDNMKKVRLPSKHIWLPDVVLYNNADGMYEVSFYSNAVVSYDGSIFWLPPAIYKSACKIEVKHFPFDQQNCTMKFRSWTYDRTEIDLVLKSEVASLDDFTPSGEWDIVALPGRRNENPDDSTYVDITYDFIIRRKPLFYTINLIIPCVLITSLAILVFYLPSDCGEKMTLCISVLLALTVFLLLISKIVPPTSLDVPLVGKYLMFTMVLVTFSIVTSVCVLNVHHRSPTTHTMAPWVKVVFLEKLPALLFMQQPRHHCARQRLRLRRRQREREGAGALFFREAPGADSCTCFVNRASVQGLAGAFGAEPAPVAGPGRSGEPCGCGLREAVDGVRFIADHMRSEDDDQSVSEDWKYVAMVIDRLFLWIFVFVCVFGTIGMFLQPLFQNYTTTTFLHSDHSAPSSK
T5 sequence (P43681 29-627 limits assumed): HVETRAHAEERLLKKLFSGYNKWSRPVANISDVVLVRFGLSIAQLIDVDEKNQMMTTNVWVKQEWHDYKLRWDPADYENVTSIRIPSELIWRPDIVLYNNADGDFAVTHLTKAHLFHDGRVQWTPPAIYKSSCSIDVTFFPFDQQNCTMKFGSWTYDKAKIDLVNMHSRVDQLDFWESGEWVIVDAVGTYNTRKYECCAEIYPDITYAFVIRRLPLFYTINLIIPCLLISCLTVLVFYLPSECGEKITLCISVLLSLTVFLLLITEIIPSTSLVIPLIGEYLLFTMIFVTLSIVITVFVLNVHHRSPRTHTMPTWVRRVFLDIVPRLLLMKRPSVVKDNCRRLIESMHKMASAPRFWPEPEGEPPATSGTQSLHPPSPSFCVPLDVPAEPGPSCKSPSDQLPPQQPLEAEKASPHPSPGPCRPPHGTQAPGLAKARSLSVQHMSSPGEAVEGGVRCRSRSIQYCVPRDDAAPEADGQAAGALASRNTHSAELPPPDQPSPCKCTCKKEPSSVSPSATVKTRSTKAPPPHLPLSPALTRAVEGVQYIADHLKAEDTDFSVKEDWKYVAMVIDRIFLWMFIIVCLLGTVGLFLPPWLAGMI
T5 sequence (P30532 23-468): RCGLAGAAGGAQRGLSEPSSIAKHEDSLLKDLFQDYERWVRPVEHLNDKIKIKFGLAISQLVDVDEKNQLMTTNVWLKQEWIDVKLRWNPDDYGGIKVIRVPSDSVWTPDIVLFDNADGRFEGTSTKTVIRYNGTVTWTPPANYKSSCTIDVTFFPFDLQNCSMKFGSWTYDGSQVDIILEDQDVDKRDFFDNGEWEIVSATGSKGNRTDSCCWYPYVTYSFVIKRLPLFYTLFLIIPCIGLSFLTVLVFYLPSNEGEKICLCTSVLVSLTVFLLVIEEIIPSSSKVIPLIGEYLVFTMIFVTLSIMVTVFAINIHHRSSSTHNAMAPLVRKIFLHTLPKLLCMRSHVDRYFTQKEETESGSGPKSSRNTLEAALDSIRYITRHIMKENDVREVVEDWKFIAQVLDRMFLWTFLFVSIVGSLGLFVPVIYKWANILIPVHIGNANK
T1 sequence (P17787 26-502): as the sequence (P17787 26-502) above
T1 sequence (P43681 29-627 limits assumed): as the sequence (P43681 29-627 limits assumed) above
T1 sequence (P17787 26-502): as the sequence (P17787 26-502) above
T4 sequence (P17787 26-502): as above
T4 sequence (P43681 29-627 limits assumed): as the sequence (P43681 29-627 limits assumed) above
T4 sequence (P30532 23-468): as the sequence (P30532 23-468) above
T2 sequence (P17787 26-502): as the sequence (P17787 26-502) above
T2 sequence (P43681 29-627 limits assumed): as the sequence (P43681 29-627 limits assumed) above
T2 sequence (P43681 29-627 limits assumed): as above
T6 sequence (P17787 26-502): as the sequence (P17787 26-502) above
T6 sequence (P43681 29-627 limits assumed): as the sequence (P43681 29-627 limits assumed) above
T6 sequence (P17787 26-502): as the sequence (P17787 26-502) above
T7 sequence (P17787 26-502): as above
T7 sequence (P43681 29-627 limits assumed): as the sequence (P43681 29-627 limits assumed) above
T7 sequence (P43681 29-627 limits assumed): as above

Compound: C[n+]1ccccc1CC(=O)c1ccc(Br)cc1 [S 24795, 2-[2-(4-bromophenyl)-2-oxoethyl]-1-methylpyridinium]
IC50 ([1]; read-out: IC50 for the inhibition of ACh evoked responses by bath applications of agonists and partial agonists, Table 2, after 30±4 min bath application, 10 μM ACh): 53 µM | IC50 ([2]; read-out: IC50 for the inhibition of ACh evoked responses by bath applications of agonists and partial agonists, Table 2, after 30±4 min bath application, 30 μM ACh): 36 µM | IC50 (α7 nAChR [3]; read-out: IC50 for the inhibition of ACh evoked responses by bath applications of agonists and partial agonists, Table 2, after 30±4 min bath application, 60 μM ACh, * = inhibition following a phase of potentiation): 15 µM | Activation n (Hill coefficient, best fit) (α7 nAChR [4]): 0.85 | best fit IC50 relative to EC50 (higher) (α7 nAChR [4]): 70 fold | EC50 (α7 nAChR [4]; net charge, read-out: Activation EC50 (best fit)): 14 µM | Inhibition Inmax of the partial agonist (best fit) (α7 nAChR [4]; [9]): 1.0 | Inhibition n (Hill coefficient, best fit) (α7 nAChR [4]; [9]): 0.26 | IC50 (α7 nAChR [4]; noncompetitive inhibition factor, read-out: Inhibition IC50 of the partial agonist (best fit)): 1000 µM | Activation Rmax (best fit) (α7 nAChR [4]; relative to ACh maximum, ACh constrained to 1): 0.20

Compound: c1cnc2cc3c(cc2n1)C1CNCC3C1 [Varenicline, 7,8,9,10-tetrahydro-6,10-methano-6H-pyrazino (2,3-h)(3) benzazepine]
inhibition at 1 µM (α4(2)β2(2)α5 nAChR; read-out: inhibition of transient ACh-evoked responses): 100% | efficacy for α4β2α5 receptors, % that of ACh (α4β2α5 nAChR [5]): 9±1%

Bath application n (Hill slope of inhibition) ([1]; 30 minutes in bath): −0.40 ± 0.10 | Bath application n (Hill slope of inhibition) ([2]; 30 minutes in bath): −1.2 ± 0.4 | Bath application n (Hill slope of inhibition) (α7 nAChR [3]; 30 minutes in bath): −1.5 ± 0.5 | IC50 (α7 nAChR [3]; 30 minutes in bath, read-out: Bath application IC50): 16 ± 3 µM | Bath application n (Hill slope of inhibition) (α4(2)β2(2)α5 nAChR; 30 minutes in bath): −0.47 ± 0.09 | Co-application n (Hill slope of inhibition) (α4(2)β2(3) nAChR): −0.80 ± 0.05 | Co-application n (Hill slope of inhibition) (α4(3)β2(2) nAChR): −0.93 ± 0.11 | Co-application n (Hill slope of inhibition) (α7 nAChR [6]; co-applied with 60 μM ACh): −0.74 ± 0.09 | IC50 (α7 nAChR [6]; read-out: Co-application IC50): 46 ± 7 µM | Co-application n (Hill slope of inhibition) (α4β2α5 nAChR [7]): −0.70 ± 0.04
Compound: CC(NC(C)(C)C)C(=O)c1cccc(Cl)c1 (stereo not drawn) [bupropion]
receptor activation by bupropion [8]: no activation above our level of detection

Compound: C[N+](C)(C)CCO [choline]
IC50 (α7 nAChR [3]; IC50, inhibition of ACh-evoked responses by prolonged bath application): 6.7 ± 1.2 µM

— US9233109B2, “Compositions, methods of use, and methods of treatment” (UNIVERSITY OF FLORIDA RESEARCH FOUNDATION, INC., priority 2010, dated 2016)
